Test results published in PubChem BioAssay (NCI).
Several values for one entry are separate records, joined by “and”; a condition that tells them apart may be missing. Equal values may be shown once.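 Five concentrations, 48 hours, 96-well plates. GI50: concentration for 50% inhibition of growth. At the TGI there is no net growth.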

Tested on: MDA-MB-468 breast
Assay: NCI anticancer screen, dose series, 48 h

First: COc1ncc(-c2ccc3ncnc(Nc4cccc(Cl)c4)c3c2)cc1NS(C)(=O)=O
Second: CS(=O)(=O)Nc1cccc(-c2ccc3ncnc(Nc4cncc(Cl)c4)c3c2)c1
The GI50 of the first is 1.6-fold higher: 211 nM for the first, 133 nM for the second.

`CCc1cccc2c3c(sc12)C(c1ccc(OC)cc1)C(C#N)=C(/N=C/c1ccc(Cl)cc1)O3` (configuration not stated) and `COc1ccc(/C=N/C2=NNC(C)(c3ccccc3O)N2C(Cc2c[nH]c3ccccc23)C(=O)O)cc1` (configuration not stated) are within 1.5-fold of each other in GI50: 1930 nM for the first, 2210 nM for the second.

Compared with `COc1ccc(/C=C2/C(=O)N(/C=C3\C(=O)Oc4ccccc4C3=O)C(=NC(C)=O)N2C)cc1OC`, `COc1cc(NC(=O)c2cc3ccccc3cc2O)c(OC)cc1Cl` is lower in GI50: greater than 100000 nM for the first, 2510 nM for the second.

Going from `CN1CCN(c2ccc(NC(=O)c3cncnc3Nc3ccc4c(ccn4Cc4cccc(F)c4)c3)cc2)CC1` to `CN1CCC(n2cnc(-c3ccc(F)cc3)c2-c2ccnc(Nc3ccccc3)n2)CC1`, the GI50 rises from 1910 nM to 3030 nM (1.6-fold).

First: Nc1nc(N)c2cc(S(=O)(=O)c3ccccc3)ccc2n1
Second: N#CC1=C(N)Oc2c(ccc3cccnc23)C1c1ccccc1 (configuration not stated)
The GI50 of the first is 30-fold higher: 8010 nM for the first, 270 nM for the second.

Compared with `COC(=O)[C@]12CC[C@@H](C)[C@H](C)[C@@H]1C1=CC[C@@H]3[C@@]4(C)C(C=O)=C[C@@](C)(COC(=O)c5ccco5)C4=CC[C@@]3(C)[C@]1(C)CC2`, `C=C(C)[C@@H]1CC[C@]2(COC(=O)c3ccccc3C(=O)O)CC[C@]3(C)[C@H](CC[C@@H]4[C@@]5(C)CC[C@H](OC(=O)c6ccccc6C(=O)O)C(C)(C)[C@@H]5CC[C@]43C)[C@@H]12` is 550-fold higher in GI50: 54.2 nM for the first, 29800 nM for the second.

Going from `CC(=O)OCCC/C(=C/c1cc2ccccc2c2ccccc12)[N+](=O)[O-]` to `NC1=C(/C(N)=N/O)C(c2ccccc2)c2ccc3ccccc3c2O1` (configuration not stated), the GI50 rises from 291 nM to 2130 nM (7.3-fold).

First: CCCCc1n(Cc2ccc3ccccc3n2)cc[n+]1Cc1ccc2ccccc2c1
Second: CCN(CC)CCOc1ccccc1-n1c(C)ccc1-c1ccccc1
The GI50 of the first is 46-fold lower: 216 nM for the first, 10000 nM for the second.

First: Nc1n[nH]c2cc(F)c([C@@H]3Nc4c(F)cc5[nH]ncc5c4[C@H]4C5CCC(C5)[C@@H]34)cc12 (some centres not stated)
Second: Nc1ncc(-c2ccc3ncnc(N4CCc5cc(F)c(F)cc54)c3c2)cn1
The GI50 of the first is 22-fold lower: 86 nM for the first, 1890 nM for the second.

Compared with `CCN(CC)CCC(CNc1c(C)cnc2cc(Cl)ccc12)c1ccc(Cl)c(Cl)c1` (configuration not stated), `O=C(C[n+]1ccn(CC(OCc2ccc(Cl)cc2Cl)c2ccc(Cl)cc2Cl)c1)c1ccc(F)cc1` (configuration not stated) is 2.8-fold lower in GI50: 2060 nM for the first, 732 nM for the second.

First: O=C(Cc1ccc(-c2ccc(OCCN3CCOCC3)cc2)cn1)NCc1ccccc1
Second: CCCCCCNC(=O)Oc1ccc(/C(=C(/C)c2ccccc2)c2ccc(OCCN3CCCCCC3)cc2)cc1
The GI50 of the first is 200-fold lower: 24.6 nM for the first, 4900 nM for the second.

Compared with `O=C1CCCc2cc3c(cc21)CC1(C3)Cc2cc3c(cc2C1)C(=O)CCC3`, `CCC1C[N+]2=C(c3cc(OC)c(OC)cc3CC2)c2c1cc1n2CCc2cc(OC)c(OC)cc2-1` (configuration not stated) is 7.3-fold lower in GI50: 2920 nM for the first, 402 nM for the second.

Compared with `CC1(C)CC(C(=O)OCCCCCCCCCCC[P+](c2ccccc2)(c2ccccc2)c2ccccc2)C(C)(C)N1O` (configuration not stated), `CCN1Cc2c(/C=C/c3ccccc3)nc3ccc(OC)cc3c2N(c2cccc(Cl)c2)C1` is 22-fold higher in GI50: 87.5 nM for the first, 1900 nM for the second.

First: CSc1ccc(/C(=N/N=C(N)N)c2ccc(Cl)cc2)cc1
Second: O=C(N/N=C\c1ccc([N+](=O)[O-])cc1)c1ccc2nc(-c3ccc(Br)cc3)[nH]c2c1
The GI50 of the first is 2.3-fold lower: 369 nM for the first, 856 nM for the second.

Going from `COc1ccc(C(=O)c2cc(C)c(OC)c(C)c2)c(OC)c1OC(=O)C(Cl)Cl` to `COc1ccc(-c2cncn2-c2ccc(-c3nc4cc(OC)c(OC)c(OC)c4s3)cc2)cc1N`, the GI50 rises from 398 nM to 8600 nM (22-fold).

First: Cc1nc2sc(C(=O)Nc3cccc(Cl)c3C)c(N)c2cc1C(O)c1ccccc1 (configuration not stated)
Second: Cc1ccc(Nn2c(SCC(=O)Nc3nc(-c4ccccc4)cs3)nc(C)c2C)cc1
The GI50 of the first is 44-fold lower: 38.8 nM for the first, 1700 nM for the second.

First: Cc1cc(O)cc(-c2nn(C)cc2-c2cc(N3CCOCC3)nc(-c3cccnc3)n2)c1
Second: Fc1cccc(-c2nc(-c3c[nH]c4ncccc34)cs2)c1
The GI50 of the first is lower: 1310 nM for the first, greater than 100000 nM for the second.

Compared with `COc1ccc2c(ccc3oc([N+](=O)[O-])cc32)c1`, `COc1ccc2cn3c4ccc(O)cc4[nH]c(=O)c3c2c1` is 1.6-fold higher in GI50: 121 nM for the first, 195 nM for the second.

Going from `O=C(Oc1c(Cl)c(Cl)c(Cl)c(Cl)c1Cl)C1CCCN1C(=O)OCc1ccccc1` (configuration not stated) to `C=CC(=O)N1CCC(CNc2ncnc(N)c2-c2ccc(Oc3ccccc3)cc2)CC1`, the GI50 rises from 2900 nM to 7290 nM (2.5-fold).

`O=c1[nH]c(=O)n(C2CC(O)C(CO)O2)cc1F` (configuration not stated) and `CCN1C(=O)N[C@H]2[C@@H]3NC(=O)c4ccc(Cl)n4[C@@H]3C[C@]21O` are within 1.5-fold of each other in GI50: 250 nM for the first, 229 nM for the second.

Compared with `NC1=CC(=O)C(=O)c2ccccc21`, `COC(=O)C[C@@H]1CC=CC(=O)/C1=C(O)/C=C/c1ccccc1` is 20-fold lower in GI50: 13200 nM for the first, 666 nM for the second.

Going from `COc1ccc(-n2nc(C(=O)NCC(=O)Nc3nc4cc(OC)ccc4s3)c3ccccc3c2=O)cc1` to `NCCNc1nc2ccc(F)cc2c2c(=O)c3cc(F)ccc3sc12`, the GI50 rises from 846 nM to 1790 nM (2.1-fold).

Going from `COC(=O)C(Br)(C(=O)OC)C(Br)C(Br)C(Br)c1ccccc1` (configuration not stated) to `O=C1Nc2cc(-c3ccc(O)cc3)ccc2/C1=C/c1ccc[nH]1`, the GI50 falls from 1650 nM to 123 nM (13-fold).

Going from `COc1ncc(-c2ccc3ncnc(Nc4cccc(Cl)c4)c3c2)cc1NS(C)(=O)=O` to `CS(=O)(=O)Nc1cccc(-c2ccc3ncnc(Nc4cncc(Cl)c4)c3c2)c1`, the TGI falls from 913 nM to 550 nM (1.7-fold).

`CCc1cccc2c3c(sc12)C(c1ccc(OC)cc1)C(C#N)=C(/N=C/c1ccc(Cl)cc1)O3` (configuration not stated) and `COc1ccc(/C=N/C2=NNC(C)(c3ccccc3O)N2C(Cc2c[nH]c3ccccc23)C(=O)O)cc1` (configuration not stated) are within 1.5-fold of each other in TGI: 6680 nM for the first, 7340 nM for the second.

Going from `COc1ccc(/C=C2/C(=O)N(/C=C3\C(=O)Oc4ccccc4C3=O)C(=NC(C)=O)N2C)cc1OC` to `COc1cc(NC(=O)c2cc3ccccc3cc2O)c(OC)cc1Cl`, the TGI falls from greater than 100000 nM to 8110 nM.

First: CN1CCN(c2ccc(NC(=O)c3cncnc3Nc3ccc4c(ccn4Cc4cccc(F)c4)c3)cc2)CC1
Second: CN1CCC(n2cnc(-c3ccc(F)cc3)c2-c2ccnc(Nc3ccccc3)n2)CC1
The TGI of the first is 1.5-fold lower: 6920 nM for the first, 10400 nM for the second.

Compared with `Nc1nc(N)c2cc(S(=O)(=O)c3ccccc3)ccc2n1`, `N#CC1=C(N)Oc2c(ccc3cccnc23)C1c1ccccc1` (configuration not stated) is lower in TGI: greater than 100000 nM for the first, 916 nM for the second.

Going from `COC(=O)[C@]12CC[C@@H](C)[C@H](C)[C@@H]1C1=CC[C@@H]3[C@@]4(C)C(C=O)=C[C@@](C)(COC(=O)c5ccco5)C4=CC[C@@]3(C)[C@]1(C)CC2` to `C=C(C)[C@@H]1CC[C@]2(COC(=O)c3ccccc3C(=O)O)CC[C@]3(C)[C@H](CC[C@@H]4[C@@]5(C)CC[C@H](OC(=O)c6ccccc6C(=O)O)C(C)(C)[C@@H]5CC[C@]43C)[C@@H]12`, the TGI rises from 1940 nM to greater than 100000 nM.

Going from `CC(=O)OCCC/C(=C/c1cc2ccccc2c2ccccc12)[N+](=O)[O-]` to `NC1=C(/C(N)=N/O)C(c2ccccc2)c2ccc3ccccc3c2O1` (configuration not stated), the TGI rises from 1060 nM to greater than 60000 nM.

Compared with `CCCCc1n(Cc2ccc3ccccc3n2)cc[n+]1Cc1ccc2ccccc2c1`, `CCN(CC)CCOc1ccccc1-n1c(C)ccc1-c1ccccc1` is 27-fold higher in TGI: 903 nM for the first, 24400 nM for the second.

Compared with `Nc1n[nH]c2cc(F)c([C@@H]3Nc4c(F)cc5[nH]ncc5c4[C@H]4C5CCC(C5)[C@@H]34)cc12` (some centres not stated), `Nc1ncc(-c2ccc3ncnc(N4CCc5cc(F)c(F)cc54)c3c2)cn1` is 31-fold higher in TGI: 250 nM for the first, 7790 nM for the second.

Compared with `CCN(CC)CCC(CNc1c(C)cnc2cc(Cl)ccc12)c1ccc(Cl)c(Cl)c1` (configuration not stated), `O=C(C[n+]1ccn(CC(OCc2ccc(Cl)cc2Cl)c2ccc(Cl)cc2Cl)c1)c1ccc(F)cc1` (configuration not stated) is 2.1-fold lower in TGI: 4640 nM for the first, 2200 nM for the second.

`O=C(Cc1ccc(-c2ccc(OCCN3CCOCC3)cc2)cn1)NCc1ccccc1` and `CCCCCCNC(=O)Oc1ccc(/C(=C(/C)c2ccccc2)c2ccc(OCCN3CCCCCC3)cc2)cc1` cannot be ordered by TGI: greater than 3570 nM for the first, 19500 nM for the second.

Going from `O=C1CCCc2cc3c(cc21)CC1(C3)Cc2cc3c(cc2C1)C(=O)CCC3` to `CCC1C[N+]2=C(c3cc(OC)c(OC)cc3CC2)c2c1cc1n2CCc2cc(OC)c(OC)cc2-1` (configuration not stated), the TGI falls from 62700 nM to 5490 nM (11-fold).

Compared with `CC1(C)CC(C(=O)OCCCCCCCCCCC[P+](c2ccccc2)(c2ccccc2)c2ccccc2)C(C)(C)N1O` (configuration not stated), `CCN1Cc2c(/C=C/c3ccccc3)nc3ccc(OC)cc3c2N(c2cccc(Cl)c2)C1` is 5.8-fold higher in TGI: 637 nM for the first, 3670 nM for the second.

`CSc1ccc(/C(=N/N=C(N)N)c2ccc(Cl)cc2)cc1` and `O=C(N/N=C\c1ccc([N+](=O)[O-])cc1)c1ccc2nc(-c3ccc(Br)cc3)[nH]c2c1` are within 1.5-fold of each other in TGI: 1500 nM for the first, 2060 nM for the second.

Going from `Cc1nc2sc(C(=O)Nc3cccc(Cl)c3C)c(N)c2cc1C(O)c1ccccc1` (configuration not stated) to `Cc1ccc(Nn2c(SCC(=O)Nc3nc(-c4ccccc4)cs3)nc(C)c2C)cc1`, the TGI falls from 16900 nM to 6670 nM (2.5-fold).

First: Cc1cc(O)cc(-c2nn(C)cc2-c2cc(N3CCOCC3)nc(-c3cccnc3)n2)c1
Second: COc1ccc(-c2cncn2-c2ccc(-c3nc4cc(OC)c(OC)c(OC)c4s3)cc2)cc1N
The TGI of the first is lower: 5630 nM for the first, greater than 100000 nM for the second.

First: COc1ccc2c(ccc3oc([N+](=O)[O-])cc32)c1
Second: COc1ccc2cn3c4ccc(O)cc4[nH]c(=O)c3c2c1
The TGI of the first is 2-fold lower: 338 nM for the first, 678 nM for the second.

Going from `O=C(Oc1c(Cl)c(Cl)c(Cl)c(Cl)c1Cl)C1CCCN1C(=O)OCc1ccccc1` (configuration not stated) to `C=CC(=O)N1CCC(CNc2ncnc(N)c2-c2ccc(Oc3ccccc3)cc2)CC1`, the TGI rises from 12600 nM to 55700 nM (4.4-fold).

First: Fc1cccc(-c2nc(-c3c[nH]c4ncccc34)cs2)c1
Second: NCCNc1nc2ccc(F)cc2c2c(=O)c3cc(F)ccc3sc12
The TGI of the first is higher: greater than 100000 nM for the first, 3340 nM for the second.

Going from `O=c1[nH]c(=O)n(C2CC(O)C(CO)O2)cc1F` (configuration not stated) to `CCN1C(=O)N[C@H]2[C@@H]3NC(=O)c4ccc(Cl)n4[C@@H]3C[C@]21O`, the TGI falls from 20600 nM to 1080 nM (19-fold).

Compared with `NC1=CC(=O)C(=O)c2ccccc21`, `COC(=O)C[C@@H]1CC=CC(=O)/C1=C(O)/C=C/c1ccccc1` is 13-fold lower in TGI: 28500 nM for the first, 2150 nM for the second.

First: COC(=O)C(Br)(C(=O)OC)C(Br)C(Br)C(Br)c1ccccc1 (configuration not stated)
Second: O=C1Nc2cc(-c3ccc(O)cc3)ccc2/C1=C/c1ccc[nH]1
The TGI of the first is 4.7-fold higher: 3530 nM for the first, 756 nM for the second.

For `CC[C@H](C)C(=O)O[C@H]1C[C@@H](C)C=C2C=C[C@H](C)[C@H](CC[C@@H]3C[C@@H](O)CC(=O)O3)[C@H]21`, the GI50 was 2030 nM and 2840 nM.

`CC[C@H](C)C(=O)O[C@H]1C[C@@H](C)C=C2C=C[C@H](C)[C@H](CC[C@@H]3C[C@@H](O)CC(=O)O3)[C@H]21` was tested, and the TGI was 14600 nM and 14800 nM.
